Measured values from US20030114388A1, “Auxiliary agents for ophthalmic operation” (priority 2000, published 2003).

System: intraoperative bleeding in a patient suffering from diabetic retinopathy with increased intrinsic coagulation tendency
Assay: Systemic drip infusion of argatroban during ophthalmic operation in a patient with diabetic retinopathy (Example 1)
Assay type: in vivo
Conditions: one patient
Protocol: The present invention will be more specifically explained by referring to an example. However, as for as within the gist of the present invention, the present invention is not limited to the following example. As argatroban in the following example, a drug commercially available as the tradename “Slonnon” was used.
The patient was a youth suffering from diabetic retinopathy with increased intrinsic coagulation tendency. […] Argatroban 10 mg as one ample was added to a drip infusion (specify ingredients, and a tradename and name of a manufacturing company if commercially available) and systemically administered to the patient from the beginning of the operation. The operation was completed for 2 hours.
The above patient was a youth suffering from diabetic retinopathy with increased intrinsic coagulation tendency, and if treated under an ordinary operation, intraoperative bleedings would have expected to be easy clotting and caused operative difficulties.

[1] = argatroban 10 mg drip infusion during operation

## CC1CNc2c(cccc2S(=O)(=O)NC(CCCNC(=N)N)C(=O)N2CCC(C)CC2C(=O)O)C1 (mixture of isomers) [argatroban, (2R,4R)-4-methyl-1-[N^2((RS)-3-methyl-1,2,3,4-tetrahydro-8-quinolinesulfonyl)-L-arginyl]-2-piperidinecarboxylic acid monohydrate]
[1]
  abnormal bleeding tendency: No abnormal bleeding tendency was not observed
  ease of treatment of intraoperative bleeding: treatment of intraoperative bleeding became easier
Argatroban 10 mg drip infusion, passive suction using a back flash needle
  removal of intraoperative bleedings: successfully removed by passive suction using a back flash needle
Argatroban 10 mg in drip infusion, systemic, from beginning of operation, 2 hour operation, treatment of fibrous vascular proliferating membrane
  preretinal clotting mass formation from intraoperative bleedings: all of the bleedings did not give preretinal clotting mass
During treatment of fibrous vascular proliferating membrane, argatroban 10 mg drip infusion
  intraoperative iatrogenic tear: no intraoperative iatrogenic tear was caused
